Results taken from PubChem BioAssay (NCI).
Where “and” joins values, the source holds several entries; their conditions need not be identical. Equal values may be shown once.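 Tested at 5 concentrations; 48 h exposure; 96-well plates; endpoints linearly interpolated, else capped at highest concentration. GI50 is the concentration that inhibits growth by half. TGI denotes the concentration required for complete inhibition of growth.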

Legend:
Test in all cases: NCI tumour cell line growth inhibition, 48 h
[1] = tested on: NCI-H460 lung
[2] = tested on: OVCAR-5 ovarian
[3] = tested on: UO-31 renal
[4] = tested on: CCRF-CEM leukemia
[5] = tested on: RXF 393 renal
[6] = tested on: SNB-19 CNS
[7] = tested on: UACC-62 melanoma
[8] = tested on: K-562 leukemia

SMILES	GI50 [1]	TGI [1] [µM]	GI50 [2] [µM]	TGI [2] [µM]	GI50 [3]	TGI [3] [µM]	GI50 [4] [µM]	TGI [4] [µM]	GI50 [5]	TGI [5]	GI50 [6]	TGI [6] [µM]	GI50 [7]	TGI [7] [µM]	GI50 [8]	TGI [8] [µM]
COc1ccc(/C=C/C(=O)c2ccc(Nc3ncnc4ccccc34)cc2)cc1OC	13 µM	> 100	39.6	> 100	4.57 µM	68.3	2.55	7.01	2.2 µM	9.96 µM	11.5 µM	> 100	10.7 µM	27.9		
N#Cc1nc(-c2cccc(Br)c2)cc(-c2ccc(Nc3nc(N4CCCCC4)nc(N4CCCCC4)n3)cc2)c1N	1.85 µM	3.8	2.06	4.7	1.68 µM	5.47	0.587	> 100	1.34 µM	2.99 µM	6.41 µM	> 100	1.5 µM	3.27	2.07 µM	> 100
O=C(O)C(/C=C/c1ccco1)=N\Nc1nc(-c2ccc(Cl)cc2)cs1	8.36 µM	> 50	46.4	> 50	12.9 µM	> 50	3.26	> 50	10.4 µM	28.4 µM	9.64 µM	> 50	7.79 µM	17.7	13.5 µM	> 50
COc1ccc(NC2=C(Sc3nc(C)cc(C)n3)C(=O)N(Cc3ccccc3)C2=O)cc1Cl	> 160 µM	> 160	> 160	> 160	> 160 µM	> 160	13.9	> 160	29 µM	136 µM	> 160 µM	> 160	22.5 µM	> 160	> 160 µM	> 160
CC[C@@]1(O)C(=O)NCc2c1cc1n(c2=O)Cc2cc3cc4c(cc3nc2-1)OCO4	0.219 µM	16.9	9.39	> 88.2	1.48 µM	> 33.1	< 0.0128	0.148	0.803 µM	> 100 µM	0.379 µM	> 61.5	0.243 µM	29.4	0.164 µM	> 100
C[C@]12CC[C@H]3[C@@H](CCC4=CC(=O)CC[C@@H]43)[C@@H]1CC[C@@H]2OC1(O)C(=O)c2ccccc2C1=O		> 100		> 100		78.3		> 100		> 100 µM		> 100		33.6		> 100
COc1ccc(-c2ccc(/C=N/n3cn[nH]c3=S)o2)c([N+](=O)[O-])c1	36.1 µM	> 100	97.1	> 100	54.4 µM	> 100	26.1	75.3	32.2 µM	> 100 µM	63.2 µM	> 100	41.1 µM	> 100	16.9 µM	36.9
Cn1cnc2c(F)c(Nc3ccc(Br)cc3Cl)c(C(=O)NOCCO)cc21	> 10 µM and 32.3 µM	> 100		> 100	1.45 µM and 3.38 µM	> 66	> 94.6	> 100	1.9 µM and 9.28 µM	> 10 µM and 78 µM	> 10 µM and 40.4 µM	> 100	0.0123 µM and 0.0212 µM		> 10 µM and 12.3 µM	> 100
C=C1C(=O)O[C@H]2[C@H]1CC/C(COC(=O)NCCc1ccc(OC)cc1)=C\CC[C@@]1(C)O[C@@H]21	12.2 µM	35.2	2.65	8.27	1.76 µM	3.26	1.98	7.74	1.55 µM	3.11 µM	8.65 µM	23.1	1.25 µM	3.05	3.08 µM	10.3
CCCCCCCCCCCCCCCCC(C(=O)O)C(O)(CC(=O)O)C(=O)O (stereo unspecified)		46.6		35.1		45.4		79.2		53.4 µM		79.3		48.9		> 100
COc1ccc(C2CC(=O)Nc3c2c(C)nn3-c2nc3ccccc3[nH]2)cc1 (stereo unspecified)	2.39 µM	5.89	4.52	> 70.1	3.19 µM	15.8	2.11	> 27.9	2.63 µM	8.92 µM	4.72 µM	> 100	1.94 µM	4.16	2.9 µM	> 35.5
